Results published in US9447140B2, “Cholest-4-en-3-one oxime derivatives, pharmaceutical compositions containing same, and preparation method” (TROPHOS, priority 2008, dated 2016).

System: rat motor neurons
Test: in vitro model of trophic deprivation of rat motor neurons (survival, calcein fluorescence after 3 days)
Assay type: cell-based
Conditions: Concentration 1 μM, E14 rat motor neurons, Neurobasal medium without neurotrophic factors
Source text: Reference can usefully be made to the applicant's patent application WO 0142784 on the culturing of motor neurons of the spinal cord.
The spinal cord of E14 rat embryos is dissected and the ventral part is dissociated by trituration after trypsination.
The motor neurons are separated from the other spinal cells by a known method (Camu et al., 1993, Purification of spinal motoneurons from chicken and rat embryos by immunopanning. In “Immunoselection Strategies for Neural cell culture”, Neuroprotocols: A companion to Methods in Neurosciences 2, 191-199; Henderson et al., 1993, Neutrophins promote motor neuron survival and are present in embryonic limb bud. Nature 363 (6426):266-70).
The cells are centrifuged on a density gradient. The fraction of large cells (the least dense) is enriched with motor neurons. The cells in this fraction are incubated with an anti-p75 antibody, a surface antigen present on the motor neurons.
Secondary antibodies coupled to magnetic beads are added and the mixture of cells is passed through a column in a magnet (Arce et al., 1999 Cardiotrophin-1 requires LIFRbeta to promote survival of mouse motoneurons purified by a novel technique. J. Neurosci Res 55 (1): 119-26). Only the motor neurons are retained: their purity is of the order of 90%.
The motor neurons are seeded at a low density in culture wells on a polyornithine-laminin substrate in a neurobasal medium (GIBCO) supplemented according to Raoul et al., 1999, Programmed cell death of embryonic motoneurons triggered through the Fas death receptor. J Cell Biol 147 (5):1049-62.
Negative controls (absence of trophic factors) and positive controls (in the presence of BDNF (Brain-Derived Neurotrophic Factor) at 1 ng/ml, GDNF (Glial-Derived Neurotrophic Factor) at 1 ng/ml and CNTF (Ciliary Neurotrophic Factor) at 10 ng/ml, marketed by the American company PEPROTECH, Inc. and the company Sigma-Aldrich, are included in each series.
The compounds to be tested are added 60 minutes after seeding and the cultures are maintained at 37° C. under 5% CO2 for 3 days.
The motor neurons have a spontaneous tendency to die in the absence of neurotrophic factors (Pettmann and Henderson, 1998, Neuronal cell death. Neuron 20 (4):633-47). After 3 days, the survival is evaluated by a fluorescence measurement after incubation of the cells in the presence of calcein which becomes fluorescent in living cells.
After 3 days in culture at 37° C., under 5% CO2 and under saturation humidity, up to 50% of the motor neurons initially seeded survive in the medium supplemented with neurotrophic factors, whilst less than 15% of the motor neurons survive in culture medium without added neurotrophic factors.
The neuroprotective activity of the compounds to be tested was evaluated by their ability to prevent the death of the motor neurons when they are added to the Neurobasal medium (GIBCO) in comparison with the survival of the motor neurons in medium with added neurotrophic factors.
This survival rate is expressed by the number of living cells after treatment with the compound to be tested compared with the survival induced by the neurotrophic factors. This ratio can therefore represent the survival percentage due to the compound tested compared with the survival induced by the neurotrophic factors. If the ratio is greater than 0, the effect of the compounds on the survival of the motor neurons is positive.

Row | Compound | Ratio (survival of motor neurons with compound compared with the survival induced by the neurotrophic factors)
1 | CC(C)CCC[C@@H](C)[C@H]1CC[C@H]2[C@@H]3CCC4=CC(=NO)C(C)C[C@]4(C)[C@H]3CC[C@]12C (stereo partly drawn) [Example 2m, 3-oxyimino-2-methyl-cholest-4-ene] | 0.42
2 | CC(CCC[C@@H](C)[C@H]1CC[C@H]2[C@@H]3CCC4=CC(=NO)CC[C@]4(C)[C@H]3CC[C@]12C)N(C)c1ccc([N+](=O)[O-])c2nonc12 (stereo partly drawn) [Example 2h, 3-oxyimino-25-[methyl(7-nitro-2,1,3-benzoxadiazol-4-yl)amino]-27-norcholest-4-ene] | 0.66
3 | CC(C)CCC[C@@H](C)[C@H]1CC[C@H]2[C@@H]3CCC4=CC(=NO)CC[C@]4(COC(=O)CCCCC4SCC5NC(=O)NC54)[C@H]3CC[C@]12C (stereo partly drawn) [Example 2l, 3-oxyimino-19-biotinyloxy-cholest-4-ene] | 0.32
4 | COC1=C2CC[C@H]3[C@@H]4CC[C@H]([C@H](C)CCCC(C)C)[C@@]4(C)CC[C@@H]3[C@@]2(C)CCC1=NO [Example 2n, 3-oxyimino-4-methoxy-cholest-4-ene] | 0.34

Same assay, conditions: Concentration 3 μM, E14 rat motor neurons, Neurobasal medium without neurotrophic factors

Row | Compound | Ratio (survival of motor neurons with compound compared with the survival induced by the neurotrophic factors)
5 | CC(C)CCC[C@@H](C)[C@H]1CC[C@H]2[C@@H]3CCC4=CC(=NO)CC[C@]4(CO)[C@H]3CC[C@]12C [Example 2k, 3-oxyimino-19-hydroxy-cholest-4-ene] | 0.49
6 | CC(C)CCC[C@@H](C)[C@H]1CCC2C3CCC4=C(F)/C(=N/O)CC[C@]4(C)C3CC[C@@]21C (stereo partly drawn) [Example 2b, 3-oxyimino-4-fluoro-cholest-4-ene] | 0.73
7 | CC(C)CCC[C@@H](C)[C@H]1CCC2C3CCC4=C/C(=N/O)C(F)(F)C[C@]4(C)C3CC[C@@]21C (stereo partly drawn) [Example 2d, 3-oxyimino-2,2-difluoro-cholest-4-ene] | 0.50
8 | CC(C)CCC[C@@H](C)[C@H]1CC[C@H]2[C@@H]3CC(F)C4=CC(=NO)C(F)C[C@]4(C)[C@H]3CC[C@]12C (stereo partly drawn) [Example 2e, 3-oxyimino-2,6-difluoro-cholest-4-ene] | 0.37
9 | CC(CCCC(C)N(C)C(=O)CCCCC1SCC2NC(=O)NC21)C1CCC2C3CCC4=CC(=NO)CCC4(C)C3CCC12C (stereo not drawn) [Example 2i, 3-oxyimino-25-((N-(+)-biotinoyl-N-methyl)amino)-27-norcholest-4-ene] | 0.42
10 | CC(C)CCC[C@@H](C)[C@H]1CCC2C3C[C@@H](F)C4=CC(=NO)CC[C@]4(C)C3CC[C@@]21C (stereo partly drawn) [Example 2c, 3-oxyimino-6β-fluoro-cholest-4-ene] | 0.50
11 | CC(C)CCC[C@@H](C)[C@H]1CC[C@H]2[C@@H]3CCC4=CC(=NO)[C@H](F)C[C@]4(C)[C@H]3CC[C@]12C [Example 2f, 3-oxyimino-2α-fluoro-cholest-4-ene] | 0.27

System: not listed separately
Test: exposure after administration by oral route
Assay type: in vivo
Conditions: qualitative

Row | Compound | exposure when administered by oral route
12 | CC(C)CCC[C@@H](C)[C@H]1CCC2C3CCC4=C(F)/C(=N/O)CC[C@]4(C)C3CC[C@@]21C (stereo partly drawn) [Example 2b, 3-oxyimino-4-fluoro-cholest-4-ene] | improved exposure
